The target in data set [1] is T1, 5-HT1A receptors (Rattus norvegicus, UniProt P19327).
T1 construct: synaptosomal membranes isolated from cerebral cortex; from tissue; host or cells: cerebral cortex of male Sprague-Dawley rats, crude synaptosomal membranes
T1 sequence (P19327 1-422): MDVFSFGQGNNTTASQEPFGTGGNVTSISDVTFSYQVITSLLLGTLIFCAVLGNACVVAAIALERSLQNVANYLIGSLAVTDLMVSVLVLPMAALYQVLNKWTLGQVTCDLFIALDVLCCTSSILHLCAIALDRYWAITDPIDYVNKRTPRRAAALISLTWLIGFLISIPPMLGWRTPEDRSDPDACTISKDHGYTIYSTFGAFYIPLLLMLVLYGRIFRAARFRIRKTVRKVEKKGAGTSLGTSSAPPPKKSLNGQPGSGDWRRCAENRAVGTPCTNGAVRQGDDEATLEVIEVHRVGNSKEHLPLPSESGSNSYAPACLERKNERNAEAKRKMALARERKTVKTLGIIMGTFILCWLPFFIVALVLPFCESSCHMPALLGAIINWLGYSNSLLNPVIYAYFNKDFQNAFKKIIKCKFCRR
Description: Inhibition of 3H-8-OH-DPAT binding at 5-HT1A in vitro (rat cerebral cortex synaptosomal membranes). More on the design: species or system Male Sprague-Dawley rats (cerebral cortex). The method, then: This general procedure is set forth in Wong et al., J. Neural Transm. 71:207-218 (1988).
Male Sprague-Dawley rats (110-150 g) from Harlan Industries (Cumberland, Ind.) were fed a Purina Chow ad libitum for at least 3 days before being used in the studies. Rats were killed by decapitation. The brains were rapidly removed, and the cerebral cortices were dissected out at 4° C.
Brain tissues were homogenized in 0.32M sucrose. After centrifugation at 1000×g for 10 min and then at 17000×g for 20 min, a crude synaptosomal fraction was sedimented. The pellet was suspended in 100 vol of 50 mM Tris-HCl, pH 7.4, incubated at 37° C. for 10 min, and centrifuged at 50000×g for 10 min. The process was repeated and the final pellet was suspended in ice-chilled 50 mM Tris-HCl, pH 7.4. By the radioligand binding method, sites specifically labeled by tritiated 8-hydroxy-2-dipropylamino1,2,3,4-tetrahydronaphthalene (^3 H-8-OH-DPAT) have been identified as 5-HT1A receptors.
Binding of (hu 3H-8-OH-DPAT) was performed according to the previously described method [Wong et. al., J. Neural Transm. 64:251-269 (1985)]. Briefly, synaptosomal membranes isolated from cerebral cortex were incubated at 37° C. for 10 min. in 2 ml of 50 mM Tris-HCl, pH 7.4; 10 μM pargyline; 0.6 mM ascorbic acid; and 0.4 nM ^3 H-8-OH-DPAT. Binding was terminated by filtering samples under reduced pressure through glass fiber (GFB) filters. The filters were washed twice with 5 ml of ice cold buffer and placed in scintillation vials with 10 ml of PCS (Amersham/Searle) scintillation fluid. Radioactivity was measured with a liquid scintillation spectrometer. Unlabeled 8-OH-DPAT at 10 μM was also included in separate samples to establish non-specific binding. Specific binding of ^3 H-8-OH-DPAT is defined as the difference of radioactivity bound in the absence and in the presence of 10 μM unlabeled 8-OH-DPAT.

The test system of data set [2] is 5-hydroxyindoleacetic acid (5-HIAA), a metabolite of 5-HT, in whole brain. As to the kind of experiment: Effectiveness by oral administration: decrease in brain concentration of 5-HIAA. To be noted: p.o.; for minimal effective dose: Rattus norvegicus, po, 2 h, read-out: minimum effective dose when administered orally; for Percent Reduction over Control (5-HIAA) / 5-HIAA Concentration in Whole Brain: 2 hours; for 5-HIAA Concentration in Whole Brain: control 1.67 ± 0.08. In kind it is in vivo, male Sprague-Dawley rats. As for the experimental part:
The activity of compounds of this invention when administered orally was determined and compared with literature compounds structurally related to the compounds of this invention. Thus, the test compound was administered to male Sprague-Dawley rats orally (p.o.), five rats being used in each test group. The rats were sacrificed two hours following p.o. administration, and the brain concentration of 5-hydroxyindoleacetic acid (5-HIAA), a metabolite of 5-HT, was measured.

Data set [3] is described as follows: Effectiveness by subcutaneous (s.c.) administration. In kind it is in vivo. To be noted: for minimal effective dose: sc, read-out: minimum effective dose when administered subcutaneously.
A short description of data set [4]: Hygroscopicity observed on isolation of the salt. It is filed as physicochemical. To be noted: fumarate salt, recrystallized from ethanol/diethyl ether. The method, then:
To a solution of water (60 mL) which contains methanesulfonic acid (0.16 mL, 2.33 mMol) was added 2-di-propylamino-8-methylthio-1,2,3,4-tetrahydronaphthalene (630 mg, 2.33 mMol). To this solution was added a solution of sodium metaperiodate (550 mg, 2.57 mMol) in water (10 mL), and the reaction mixture was stirred for two days at room temperature. The reaction mixture was made basic (NH4 OH) and extracted with dichloromethane. The organic extracts were combined, dried (Na2 SO4) and concentrated in vacuo to give the crude title compound as a light yellow oil. Purification by flash chromatography (3% methanol in dichloromethane+tr. NH4 OH) gave the desired product (580 mg, 85%) as a colorless oil. The fumarate salt was formed. […] Drying in a vacuum dessicator (60° C., 18 hours) gave a colorless glass (260 mg, m.p. =63° C.).

Structures can show the parent of a compound that is named as a salt. Where two headings read alike, the source gives them in different places.

Consider `CCCN(CCC)[C@@H]1CCc2cccc(SC)c2[C@@H]1C` (relative stereo) [Example 8, cis-1-Methyl-2-di-n-propylamino-8-thiomethyl-1,2,3,4-tetrahydronaphthalene], for which the IC50 in data set [1] (0.4 nM 3H-8-OH-DPAT, rat cerebral cortex synaptosomal membranes, 37° C., 10 min, pH 7.4, read-out: IC50, 5HT1a (concentration required to inhibit the binding of 3H-8-OH-DPAT by 50%)) worked out at 297 nM.

As to `CCCN(CCC)C1CCc2cccc(SC)c2C1` (stereo not drawn) [Example 1, 2-Di-n-propylamino-8-thiomethyl1,2,3,4-tetrahydronaphthalene], the minimal effective dose in data set [2] was around 1 mg/kg; in data set [3], around 0.3 mg/kg. Besides, the “Percent Reduction over Control (5-HIAA)” value in data set [2] (0.1 mg/Kg) came out at 0%; in data set [2] (1 mg/Kg) it was 13%; in data set [2] (10 mg/Kg), 25%. The “5-HIAA Concentration in Whole Brain” value is 1.56 ± 0.04 nmol/g in data set [2] (0.1 mg/Kg), 1.45 ± 0.03 nmol/g in data set [2] (1 mg/Kg) and 1.25 ± 0.06 nmol/g in data set [2] (10 mg/Kg). The “minimum effective dose relative to 8-OH-DPAT, oral” value in data set [2] (vs 8-OH-DPAT) is given as “about ten-fold less”. Moreover, the IC50 in data set [1] was found to be 0.3 nM. The “potency relative to 8-OH-DPAT, subcutaneous” value in data set [3] (vs 8-OH-DPAT) was “about ten-fold less potent”.

Regarding `CCCN(CCC)C1CCc2cccc(SCC)c2C1` (stereo not drawn) [Example 2, 2-Di-n-propylamino-8-thioethyl-1,2,3,4-tetrahydronaphthalene], the IC50 in data set [1] stood at 30.7 nM.

Take `CCCN(CCC)C1CCc2cccc(Sc3ccccc3)c2C1` (stereo not drawn) [Example 3, 2-Di-n-propylamino-8-thiophenyl-1,2,3,4-tetrahydronaphthalene]: the IC50 in data set [1] is 22.2 nM.

The compound `CCCN(CCC)C1CCc2cccc(SCc3ccccc3)c2C1` (stereo not drawn) [Example 4, 2-Di-n-propylamino-8-thiobenzyl-1,2,3,4-tetrahydronaphthalene] showed an IC50 in data set [1] of 2.8 nM.

As to `CCCN(CCC)C1CCc2cccc([S+](C)[O-])c2C1` (stereo not drawn) [Example 5, 2-Di-n-propylamino-8-methylsulfinyl-1,2,3,4-tetrahydronaphthalene], the IC50 in data set [1] was 71.1 nM. The hygroscopicity entry in data set [4] is reported as “extremely hygroscopic”.

For the compound `CCCN(CCC)C1CCc2cccc(S(C)(=O)=O)c2C1` (stereo not drawn) [Example 6, 2-Di-n-propylamino-8-methylsulfonyl-1,2,3,4-tetrahydronaphthalene], the IC50 in data set [1] was found to be 10 nM.

On to `CSc1cccc2c1CC(N(C)C)CC2` (stereo not drawn) [Example 7, 2-Dimethylamino-8-thiomethyl-1,2,3,4-tetrahydronaphthalene], for which, in data set [1], the IC50 stood at 21 nM.

As for `CCCN(CCC)C1CCc2cccc(O)c2C1` (stereo not drawn) [Example 8-OH-DPAT, 8-hydroxy-2-dipropylamino1,2,3,4-tetrahydronaphthalene, reference compound], the minimal effective dose is around 10 mg/kg in data set [2] and around 0.03 mg/kg in data set [3]. The “Percent Reduction over Control (5-HIAA)” value in data set [2] (0.1 mg/Kg) was 0%; in data set [2] (1 mg/Kg), 0%; in data set [2] (10 mg/Kg), 16%. Besides, the results for the “5-HIAA Concentration in Whole Brain” value in data set [2] (0.1 mg/Kg), in data set [2] (1 mg/Kg) and in data set [2] (10 mg/Kg) were 1.62 ± 0.07 nmol/g, 1.75 ± 0.05 nmol/g and 1.40 ± 0.06 nmol/g, respectively.

The compound `CCCN(CCC)C1CCc2cccc(Sc3ccc(C)cc3)c2C1` (stereo not drawn) [Example 9] gave an IC50 in data set [1] of 59 nM.

Turning to `CCCN(CCC)C1CCc2cccc(Sc3ccccn3)c2C1` (stereo not drawn) [Example 10], the IC50 in data set [1] is 9 nM.

For `CCCN(CCC)C1COc2cccc(SC)c2C1` (stereo not drawn) [Example 11, 3-(Di-n-propylamino)-5-methylthio-chromane hydrochloride], the IC50 in data set [1] amounted to 2.5 nM.
